According to publication PMC6010123, “Synthesis of chiral pyrazolo[4,3-e][1,2,4]triazine sulfonamides with tyrosinase and urease inhibitory activity” (Journal of Enzyme Inhibition and Medicinal Chemistry, 2016):
Like-named read-outs stand apart in the source and are kept apart here.

Assays:
[1] = target: T1, Jack bean urease (EC 3.5.1.5) (Canavalia ensiformis, UniProt P07374); assay: biochemical
T1 construct: purchased Sigma (St. Louis, MO, USA)

Jack bean urease = target: T2, Jack bean urease (Canavalia ensiformis, UniProt P07374); assay: Kinetic study of urease inhibition (Lineweaver-Burk, secondary replot, Dixon plot); format: biochemical
T2 construct: purchased Sigma (St. Louis, MO, USA)
Protocol: Urease inhibition was measured by varying the concentration of urea in the presence of different concentrations (0, 0.125, 0.25 and 0.5 μM) of compound 8a. Inhibitory constant (Ki) was determined as the intersection on the X-axis of the secondary replot of 1/V (y-intercept of Lineweaver–Burk plot) versus inhibitor concentrations and by Dixon plot of inverse of velocities (1/V) versus inhibitor concentrations. Briefly the urea concentration was changed from 3.12 to 100 mM for urease kinetics studies and remaining procedure was same as describes in urease inhibition assay protocol. Urease activity was determined by measuring ammonia production using the indophenol method as reported previously. The results (change in absorbance per min) were processed by using SoftMaxPro software(Molecular Devices Corporation Sunnyvale, CA) and a Dixon plot was constructed by plotting (1/V) versus inhibitor concentration [I].

mushroom tyrosinase = mushroom tyrosinase (Agaricus bisporus, UniProt C7FF04); assay: Kinetic study of mushroom tyrosinase inhibition (Lineweaver-Burk, secondary replot, Dixon plot); format: biochemical; conditions: substrate L-DOPA
Protocol: Lineweaver–Burk plots of 1/absorbance versus 1/L-DOPA and 1/absorbance versus 1/Urea were used to determine the type of enzyme inhibition. A series of experiments were performed to determine the inhibition kinetics by following method[18] ^, [28] ^, [29]. Different inhibitor concentrations of compound 8b with 0, 15, 30, 61, 123 and 247 μM, 8j with 0, 14, 28 and 55.8 μM, respectively were used in case of mushroom tyrosinase inhibition. Substrate L-DOPA concentration was between 0.062 and 2 mM in all tyrosinase kinetic study. Pre-incubation and measurement time was the same as discussed in mushroom tyrosinase inhibition assay protocol. Maximal initial velocity was determined from initial linear portion of absorbance up to five minutes after addition of enzyme at a 30 s interval. The inhibition type on the enzyme was assayed by Lineweaver–Burk plots of inverse of velocities (1/V) versus inverse of substrate concentration 1/[S] mM ^− ^1, and the inhibition constant Ki was determined by two methods, by secondary replot of 1/V (y-intercept of Lineweaver–Burk plot) versus inhibitor concentrations and by Dixon plot of inverse of velocities (1/V) versus inhibitor concentrations.

T1 sequence (P07374 whole entry, looked up): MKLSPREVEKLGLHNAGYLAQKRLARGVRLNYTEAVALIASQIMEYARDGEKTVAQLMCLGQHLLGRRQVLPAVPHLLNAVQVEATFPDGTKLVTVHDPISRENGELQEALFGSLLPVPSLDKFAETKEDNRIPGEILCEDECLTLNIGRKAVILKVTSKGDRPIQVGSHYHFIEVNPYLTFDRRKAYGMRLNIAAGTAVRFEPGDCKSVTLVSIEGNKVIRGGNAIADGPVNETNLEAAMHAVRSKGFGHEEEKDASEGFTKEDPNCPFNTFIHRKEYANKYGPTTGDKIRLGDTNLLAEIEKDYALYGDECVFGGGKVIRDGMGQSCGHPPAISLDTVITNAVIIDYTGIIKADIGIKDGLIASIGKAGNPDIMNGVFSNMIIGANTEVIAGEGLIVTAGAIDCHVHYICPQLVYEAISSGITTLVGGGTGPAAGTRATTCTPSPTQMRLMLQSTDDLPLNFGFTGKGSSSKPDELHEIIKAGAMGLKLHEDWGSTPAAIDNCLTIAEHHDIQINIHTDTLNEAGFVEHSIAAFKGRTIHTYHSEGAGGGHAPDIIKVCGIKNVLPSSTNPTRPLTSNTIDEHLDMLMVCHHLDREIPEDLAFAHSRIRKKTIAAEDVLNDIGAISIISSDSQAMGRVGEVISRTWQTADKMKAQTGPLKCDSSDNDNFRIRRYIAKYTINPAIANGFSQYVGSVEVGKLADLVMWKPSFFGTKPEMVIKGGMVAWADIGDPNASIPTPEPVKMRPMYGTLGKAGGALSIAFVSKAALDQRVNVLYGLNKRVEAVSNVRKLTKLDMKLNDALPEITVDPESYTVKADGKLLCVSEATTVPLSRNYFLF
Chain of mushroom tyrosinase (C7FF04 2-392): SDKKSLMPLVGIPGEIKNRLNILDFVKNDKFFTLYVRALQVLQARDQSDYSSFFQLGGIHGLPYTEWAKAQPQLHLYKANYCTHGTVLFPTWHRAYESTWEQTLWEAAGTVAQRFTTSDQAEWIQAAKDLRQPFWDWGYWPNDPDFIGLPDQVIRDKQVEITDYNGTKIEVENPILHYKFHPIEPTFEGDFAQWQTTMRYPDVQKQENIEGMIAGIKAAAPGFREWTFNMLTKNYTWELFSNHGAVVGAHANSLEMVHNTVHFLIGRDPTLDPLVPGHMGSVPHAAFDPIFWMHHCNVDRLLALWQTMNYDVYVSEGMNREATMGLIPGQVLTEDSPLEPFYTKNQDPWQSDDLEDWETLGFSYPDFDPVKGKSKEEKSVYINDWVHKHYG
T2 sequence (P07374 whole entry, looked up): as the sequence (P07374 whole entry, looked up) above

SMILES | IC50 [1] [µM] | also measured
CCOc1ccc(S(=O)(=O)N[C@@H](CO)C(C)C)cc1-c1nnc2c(n1)c(C)nn2C [8d, (R)-3-(1,3-dimethyl-1H-pyrazolo[4,3-e][1,2,4]triazin-5-yl)-4-ethoxy-N-(1-hydroxy-3-methylbutan-2-yl)benzenesulfonamide] | 0.064 ± 0.02 | 
CCOc1ccc(S(=O)(=O)NC[C@H](O)CO)cc1-c1nnc2c(n1)c(C)nn2C [8g, (S)-N-(2,3-dihydroxypropyl)-3-(1,3-dimethyl-1H-pyrazolo[4,3-e][1,2,4]triazin-5-yl)-4-ethoxybenzenesulfonamide] | 0.063 ± 0.016 | 
NC(N)=S [Thio-Urea, thiourea, reference compound] |  | IC50 ([1]; Jack bean urease, 100 mM urea, pH 8.2, 37 °C, read-out: Urease IC50): 20.7 ± 0.45 µM
CCOc1ccc(S(=O)(=O)NC[C@@H](O)CO)cc1-c1nnc2c(n1)c(C)nn2C [8h, (R)-N-(2,3-dihydroxypropyl)-3-(1,3-dimethyl-1H-pyrazolo[4,3-e][1,2,4]triazin-5-yl)-4-ethoxybenzenesulfonamide] | 0.08 ± 0.014 | 
CCOc1ccc(S(=O)(=O)N[C@@H](C)CO)cc1-c1nnc2c(n1)c(C)nn2C [8a, (S)-3-(1,3-dimethyl-1H-pyrazolo[4,3-e][1,2,4]triazin-5-yl)-4-ethoxy-N-(1-hydroxy-propan-2-yl)benzenesulfonamide] | 0.037 ± 0.003 | Ki (Jack bean urease): 0.01 µM; Urease type of inhibition (Jack bean urease; Lineweaver-Burk plot, substrate urea): Mixed type
CCOc1ccc(S(=O)(=O)N[C@H](CO)CC(C)C)cc1-c1nnc2c(n1)c(C)nn2C [8i, (S)-3-(1,3-dimethyl-1H-pyrazolo[4,3-e][1,2,4]triazin-5-yl)-4-ethoxy-N-(1-hydroxy-4-methylpentan-2-yl)benzenesulfonamide] | 0.042 ± 0.012 | 
CCOc1ccc(S(=O)(=O)NC[C@@H](C)O)cc1-c1nnc2c(n1)c(C)nn2C [8f, (R)-3-(1,3-dimethyl-1H-pyrazolo[4,3-e][1,2,4]triazin-5-yl)-4-ethoxy-N-(2-hydroxy-propyl)-benzenesulfonamide] |  | IC50 ([1]; read-out: Urease IC50, Jack bean urease, 100 mM urea, pH 8.2, 37 °C): 0.044 ± 0.13 µM
CCOc1ccc(S(=O)(=O)NC[C@H](C)O)cc1-c1nnc2c(n1)c(C)nn2C [8e, (S)-3-(1,3-dimethyl-1H-pyrazolo[4,3-e][1,2,4]triazin-5-yl)-4-ethoxy-N-(2-hydroxy-propyl)-benzenesulfonamide] | 0.076 ± 0.007 | 
CCOc1ccc(S(=O)(=O)N[C@H](C)CO)cc1-c1nnc2c(n1)c(C)nn2C [8b, (R)-3-(1,3-dimethyl-1H-pyrazolo[4,3-e][1,2,4]triazin-5-yl)-4-ethoxy-N-(1-hydroxy-propan-2-yl)benzenesulfonamide] | 0.084 ± 0.02 | Mushroom tyrosinase type of inhibition (mushroom tyrosinase): Noncompetitive
CCOc1ccc(S(=O)(=O)N[C@H](CO)C(C)C)cc1-c1nnc2c(n1)c(C)nn2C [8c, (S)-3-(1,3-dimethyl-1H-pyrazolo[4,3-e][1,2,4]triazin-5-yl)-4-ethoxy-N-(1-hydroxy-3-methylbutan-2-yl)benzenesulfonamide] | 0.078 ± 0.02 | 
CCOc1ccc(S(=O)(=O)N[C@@H](CO)CC(C)C)cc1-c1nnc2c(n1)c(C)nn2C [8j, (R)-3-(1,3-dimethyl-1H-pyrazolo[4,3-e][1,2,4]triazin-5-yl)-4-ethoxy-N-(1-hydroxy-4-methylpentan-2-yl)benzenesulfonamide] | 0.08 ± 0.015 | Mushroom tyrosinase type of inhibition (mushroom tyrosinase): Mixed type
